Experimental data as given in publication PMC7413254 (Nature Communications, 2020).

How the values were obtained:
Type in all cases: cell-based
PfCRT^Dd2 [1] = biological target: T1, PfCRT^Dd2 (Plasmodium falciparum, UniProt Q9N623, A220S/I356T/K76T/M74I/N326S/N75E/Q271E/R371I); assay: cell-based; details: for PfCRT-mediated [3H]CQ transport, trans-stimulation (% PfCRTDd2 control): PfCRTDd2 oocytes, normalised to oocyte type control; for [3H]CQ transport (% PfCRTDd2 control), trans-stimulation, PfCRTDd2: PfCRT-mediated component (background subtracted), mean ± SEM, SEM
Procedure, shortened: (§1)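 Oocytes (ten per treatment, ≥4 independent frogs/days) were preloaded by injecting VF-6 in 25 nL ND96 at pH 5.0, 5.5, 6.0 or 7.0, or Na^+-free choline buffer, then uptake run 1.5 h, 27.5 °C, ND96 pH 5.5 by default. Internal concentrations assumed ~400 nL oocyte volume.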

PfCRT^3D7 = PfCRT^3D7 (Plasmodium falciparum, UniProt Q8IBZ9); assay: cell-based; details: PfCRT3D7 oocytes, normalised to oocyte type control
Procedure, shortened: as §1

PfCRT^Ecu1110 [2] = biological target: T2, PfCRT^Ecu1110 (Plasmodium falciparum, UniProt Q9N623, A220S/I356L/K76T/N326D); assay: cell-based; details: for PfCRT-mediated [3H]CQ transport, trans-stimulation (% PfCRTEcu1110 control): PfCRTEcu1110 oocytes, normalised to oocyte type control; for [3H]CQ transport (% PfCRTDd2 control), trans-stimulation, PfCRTEcu1110: PfCRT-mediated component (background subtracted), sheet title says normalised to PfCRTDd2 control, mean ± SEM, SEM
Procedure, shortened: as §1

PfCRT^Dd2 [3] = biological target: T1, PfCRT^Dd2; assay: [3H]CQ uptake into Xenopus oocytes, cis-inhibition by unlabelled solute; details: PfCRTDd2 oocytes, background [3H]CQ accumulation subtracted, normalised to oocyte type control
Procedure, shortened: (§2)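 Each treatment used ten oocytes, repeated in at least four experiments on different days with oocytes from different frogs. Conditions: ND96 pH 5.5, 27.5 °C, 1.5 h; read-out by scintillation counting.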

PfCRT^Ecu1110 [4] = biological target: T2, PfCRT^Ecu1110; assay: as above; details: for PfCRT-mediated [3H]CQ transport, cis-inhibition (% PfCRTEcu1110 control): PfCRTEcu1110 oocytes, background [3H]CQ accumulation subtracted, normalised to oocyte type control; for [3H]CQ transport (% PfCRTEcu1110 control), cis-inhibition, PfCRTEcu1110: PfCRT-mediated component (background subtracted), sheet title says normalised to PfCRTDd2 control, mean ± SEM, SEM
Procedure, shortened: as §2

[5] = [test solute]i = 5 mM (intracellular)
[6] = [test solute]i = 45 mM (intracellular; 30 mM for some solutes due to solubility)
[7] = [test solute]i = 5 mM (injected)
[8] = [test solute]i = 45 mM (30 mM for some solutes due to solubility)

T2 sequence (Q9N623 whole entry A220S/I356L/K76T/N326D): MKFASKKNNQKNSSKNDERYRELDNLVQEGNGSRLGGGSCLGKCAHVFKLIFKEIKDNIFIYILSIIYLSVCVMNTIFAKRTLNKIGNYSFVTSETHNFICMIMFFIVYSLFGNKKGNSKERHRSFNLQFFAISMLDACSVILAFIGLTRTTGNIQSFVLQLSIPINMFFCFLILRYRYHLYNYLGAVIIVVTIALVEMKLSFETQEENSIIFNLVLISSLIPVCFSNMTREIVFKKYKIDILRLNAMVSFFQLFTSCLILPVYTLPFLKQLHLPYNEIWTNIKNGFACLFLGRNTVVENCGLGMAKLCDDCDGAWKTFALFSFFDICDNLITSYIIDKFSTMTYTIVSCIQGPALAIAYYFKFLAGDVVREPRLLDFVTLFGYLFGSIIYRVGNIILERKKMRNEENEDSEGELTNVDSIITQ
Chain of PfCRT^3D7 (Q8IBZ9 59-398): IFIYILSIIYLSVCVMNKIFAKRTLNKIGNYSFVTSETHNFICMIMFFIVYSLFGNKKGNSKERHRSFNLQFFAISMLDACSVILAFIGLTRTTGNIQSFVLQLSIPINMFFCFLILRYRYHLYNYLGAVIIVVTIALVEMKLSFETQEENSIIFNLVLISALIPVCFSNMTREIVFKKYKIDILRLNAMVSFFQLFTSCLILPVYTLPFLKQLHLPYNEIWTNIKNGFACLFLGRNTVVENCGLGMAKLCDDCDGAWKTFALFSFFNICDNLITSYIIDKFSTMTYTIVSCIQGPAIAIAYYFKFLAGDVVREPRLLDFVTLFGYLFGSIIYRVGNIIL
T1 sequence (Q9N623 whole entry A220S/I356T/K76T/M74I/N326S/N75E/Q271E/R371I): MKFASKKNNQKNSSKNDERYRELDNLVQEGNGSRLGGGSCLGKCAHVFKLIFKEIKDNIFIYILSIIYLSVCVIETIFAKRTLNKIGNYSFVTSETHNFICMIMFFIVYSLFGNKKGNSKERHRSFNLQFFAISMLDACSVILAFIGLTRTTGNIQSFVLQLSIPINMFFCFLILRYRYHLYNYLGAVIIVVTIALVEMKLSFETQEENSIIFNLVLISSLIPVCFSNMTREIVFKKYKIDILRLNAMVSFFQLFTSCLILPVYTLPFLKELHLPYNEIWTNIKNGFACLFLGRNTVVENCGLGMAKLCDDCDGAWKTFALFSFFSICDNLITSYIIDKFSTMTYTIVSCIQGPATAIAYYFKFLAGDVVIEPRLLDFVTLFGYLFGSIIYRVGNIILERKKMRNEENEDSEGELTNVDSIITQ

Substance | PfCRT-mediated [3H]CQ transport, trans-stimulation (% PfCRTDd2 control) (PfCRT^Dd2 [1]; [5]) | PfCRT-mediated [3H]CQ transport, trans-stimulation (% PfCRTDd2 control) (PfCRT^Dd2 [1]; [6]) | [3H]CQ transport (% PfCRTDd2 control), trans-stimulation, PfCRTDd2 (PfCRT^Dd2 [1]; [7]) [% PfCRTDd2 control] | [3H]CQ transport (% PfCRTDd2 control), trans-stimulation, PfCRTDd2 (PfCRT^Dd2 [1]; [8]) [% PfCRTDd2 control] | PfCRT-mediated [3H]CQ transport, trans-stimulation (% PfCRT3D7 control) (PfCRT^3D7; [5]) | PfCRT-mediated [3H]CQ transport, trans-stimulation (% PfCRT3D7 control) (PfCRT^3D7; [6]) | PfCRT-mediated [3H]CQ transport, trans-stimulation (% PfCRTEcu1110 control) (PfCRT^Ecu1110 [2]; [5]) | PfCRT-mediated [3H]CQ transport, trans-stimulation (% PfCRTEcu1110 control) (PfCRT^Ecu1110 [2]; [6]) | [3H]CQ transport (% PfCRTDd2 control), trans-stimulation, PfCRTEcu1110 (PfCRT^Ecu1110 [2]; [7]) [% PfCRTEcu1110 control] | [3H]CQ transport (% PfCRTDd2 control), trans-stimulation, PfCRTEcu1110 (PfCRT^Ecu1110 [2]; [8]) [% PfCRTEcu1110 control] | PfCRT-mediated [3H]CQ transport, cis-inhibition (% PfCRTDd2 control) (PfCRT^Dd2 [3]; [test solute] = 0.5 mM) | PfCRT-mediated [3H]CQ transport, cis-inhibition (% PfCRTDd2 control) (PfCRT^Dd2 [3]; [test solute] = 1 mM) | PfCRT-mediated [3H]CQ transport, cis-inhibition (% PfCRTDd2 control) (PfCRT^Dd2 [3]; [test solute] = 2 mM) | PfCRT-mediated [3H]CQ transport, cis-inhibition (% PfCRTEcu1110 control) (PfCRT^Ecu1110 [4]; [test solute] = 0.5 mM) | PfCRT-mediated [3H]CQ transport, cis-inhibition (% PfCRTEcu1110 control) (PfCRT^Ecu1110 [4]; [test solute] = 1 mM) | PfCRT-mediated [3H]CQ transport, cis-inhibition (% PfCRTEcu1110 control) (PfCRT^Ecu1110 [4]; [test solute] = 2 mM) | [3H]CQ transport (% PfCRTEcu1110 control), cis-inhibition, PfCRTEcu1110 (PfCRT^Ecu1110 [4]; [test solute] = 1 mM) [% PfCRTEcu1110 control] | [3H]CQ transport (% PfCRTEcu1110 control), cis-inhibition, PfCRTEcu1110 (PfCRT^Ecu1110 [4]; [test solute] = 2 mM) [% PfCRTEcu1110 control] | [3H]CQ transport (% PfCRTEcu1110 control), cis-inhibition, PfCRTEcu1110 (PfCRT^Ecu1110 [4]; [test solute] = 0.5 mM) [% PfCRTEcu1110 control]
VDEVGG [VG-6] | 102 ± 4.7 | 112 ± 0.9 | 102 ± 4.7 | 112 ± 0.9 | 140 ± 4.4 | 190 ± 3.6 | 128 ± 4.2 | 139 ± 4.6 | 39 ± 1.5 | 42 ± 2.6 | 55 ± 1.8 | 44 ± 2.7 | 38 ± 1.3 | 61 ± 3.5 | 51 ± 2.6 | 39 ± 1.4 | 16 ± 0.1 | 12 ± 0.02 | –
VDPVNFK [VK-7] | 100 ± 4.2 | 98 ± 2.2 | 100 ± 4.2 | 98 ± 2.2 | 128 ± 3.2 | 179 ± 5.3 | 132 ± 3.5 | 138 ± 4.1 | 40 ± 2.1 | 42 ± 2.4 | 17 ± 0.3 | 9 ± 0.1 | 3.2 ± 0.1 | 40 ± 2.5 | 27 ± 4.1 | 22 ± 2.4 | 9.0 ± 0.02 | 7.0 ± 0.04 | 13 ± 0.6
